According to patent US9668497B2, “Flavor-enhancing compounds” (INTERNATIONAL FLAVORS & FRAGRANCES INC., priority 2015, dated 2017):

How the values were obtained:
[1] = Cooling enhancement in Cooler 2 (10 ppm); assay type: in vivo
Protocol: (§1) The cooling enhancement of Formula I and Na-Formula I in cooling compounds including WS-5 (30 ppm), WS-23 (35 ppm), menthyl lactate (35 ppm), WS-3 (30 ppm) and Cooler 2 (10 ppm) was also evaluated.

[2] = Cooling enhancement in menthyl lactate (35 ppm); assay type: in vivo
Protocol: as §1

[3] = Solubility in aqueous solutions; assay type: physicochemical
[4] = Sensory description of Formula I alone in water; assay type: in vivo; conditions: 20 ppm in water
[5] = Cooling enhancement in various cooling compounds (summary of Example VII); assay type: in vivo; conditions: WS-5, WS-23, menthyl lactate, WS-3, Cooler 2; table footnote
Protocol: as §1

[6] = Cooling enhancement in WS-23 (35 ppm); assay type: in vivo
Protocol: as §1

[7] = Cooling enhancement in WS-3 (30 ppm); assay type: in vivo
Protocol: as §1

[8] = Cooling enhancement in menthol (35 ppm), trained sensory panel; assay type: in vivo
Protocol: The flavor compositions of menthol (35 ppm) combined with 7,8-dihydroxy-2-phenyl-4H-chromen-4-one (Formula I) at different concentrations were evaluated by a trained sensory panel. Sensory results are reported in the following. […]

[9] = Cooling enhancement in WS-5 (30 ppm); assay type: in vivo
Protocol: as §1

SMILES: O=c1cc(-c2ccccc2)oc2c(O)c(O)ccc12 [Formula I, 7,8-dihydroxy-2-phenyl-4H-chromen-4-one]
- Evaluation on the Cooling Enhancement ([1]; test substance 1 ppm): Marginal
- Evaluation on the Cooling Enhancement ([1]; test substance 2 ppm): Marginal
- Evaluation on the Cooling Enhancement ([1]; test substance 5 ppm): Marginal
- Evaluation on the Cooling Enhancement ([1]; test substance 10 ppm): ~10% enhancement
- Evaluation on the Cooling Enhancement ([1]; test substance 20 ppm): ~10% enhancement
- Evaluation on the Cooling Enhancement ([1]; test substance 30 ppm): ~20% enhancement,
- Evaluation on the Cooling Enhancement ([1]; test substance 40 ppm): Enhancement,
- Evaluation on the Cooling Enhancement ([1]; test substance 50 ppm): Enhancement,
- Evaluation on the Cooling Enhancement ([1]; test substance 100 ppm): Enhancement,
- Evaluation on the Cooling Enhancement ([2]; test substance 1 ppm): Marginal
- Evaluation on the Cooling Enhancement ([2]; test substance 2 ppm): Marginal
- Evaluation on the Cooling Enhancement ([2]; test substance 5 ppm): Marginal
- Evaluation on the Cooling Enhancement ([2]; test substance 10 ppm): ~10% enhancement
- Evaluation on the Cooling Enhancement ([2]; test substance 20 ppm): ~20% enhancement
- Evaluation on the Cooling Enhancement ([2]; test substance 30 ppm): ~20% enhancement,
- Evaluation on the Cooling Enhancement ([2]; test substance 40 ppm): Enhancement,
- Evaluation on the Cooling Enhancement ([2]; test substance 50 ppm): Enhancement,
- Evaluation on the Cooling Enhancement ([2]; test substance 100 ppm): Enhancement,
- Solubility in aqueous solutions [3]: sparingly soluble
- Cooling property [4]: no cooling property
- Cooling enhancement, overall statement [5]: Formula I and Na-Formula I enhanced the cooling sensation of various cooling compounds.
- Evaluation on the Cooling Enhancement ([6]; test substance 1 ppm): Marginal
- Evaluation on the Cooling Enhancement ([6]; test substance 2 ppm): Marginal
- Evaluation on the Cooling Enhancement ([6]; test substance 5 ppm): Marginal
- Evaluation on the Cooling Enhancement ([6]; test substance 10 ppm): ~10% enhancement
- Evaluation on the Cooling Enhancement ([6]; test substance 20 ppm): ~20% enhancement
- Evaluation on the Cooling Enhancement ([6]; test substance 30 ppm): ~20% enhancement,
- Evaluation on the Cooling Enhancement ([6]; test substance 40 ppm): Enhancement,
- Evaluation on the Cooling Enhancement ([6]; test substance 50 ppm): Enhancement,
- Evaluation on the Cooling Enhancement ([6]; test substance 100 ppm): Enhancement,
- Evaluation on the Cooling Enhancement ([7]; test substance 1 ppm): Marginal
- Evaluation on the Cooling Enhancement ([7]; test substance 2 ppm): Marginal
- Evaluation on the Cooling Enhancement ([7]; test substance 5 ppm): Marginal
- Evaluation on the Cooling Enhancement ([7]; test substance 10 ppm): ~15% enhancement
- Evaluation on the Cooling Enhancement ([7]; test substance 20 ppm): ~20% enhancement
- Evaluation on the Cooling Enhancement ([7]; test substance 30 ppm): ~20% enhancement,
- Evaluation on the Cooling Enhancement ([7]; test substance 40 ppm): Enhancement,
- Evaluation on the Cooling Enhancement ([7]; test substance 50 ppm): Enhancement,
- Evaluation on the Cooling Enhancement ([7]; test substance 100 ppm): Enhancement,
- Cooling enhancement, overall statement ([8]; menthol 35 ppm, table footnote): Formula I enhanced the cooling sensation of menthol.
- Flavor Profile: cooling enhancement ([8]; menthol 35 ppm, test substance 1 ppm): Marginal cooling enhancement
- Flavor Profile: cooling enhancement ([8]; menthol 35 ppm, test substance 2 ppm): Marginal cooling enhancement
- Flavor Profile: cooling enhancement ([8]; menthol 35 ppm, test substance 5 ppm): Marginal cooling enhancement
- Flavor Profile: cooling enhancement ([8]; menthol 35 ppm, test substance 10 ppm): ~10% cooling enhancement
- Flavor Profile: cooling enhancement ([8]; menthol 35 ppm, test substance 20 ppm): ~20% cooling enhancement,
- Flavor Profile: cooling enhancement ([8]; menthol 35 ppm, test substance 30 ppm): ~20% cooling enhancement, slight
- Flavor Profile: cooling enhancement ([8]; menthol 35 ppm, test substance 40 ppm): Cooling enhancement, reduced
- Flavor Profile: cooling enhancement ([8]; menthol 35 ppm, test substance 50 ppm): Cooling enhancement, harsh
- Flavor Profile: cooling enhancement ([8]; menthol 35 ppm, test substance 100 ppm): Cooling enhancement, harsh
- Evaluation on the Cooling Enhancement ([9]; test substance 1 ppm): Marginal
- Evaluation on the Cooling Enhancement ([9]; test substance 2 ppm): Marginal
- Evaluation on the Cooling Enhancement ([9]; test substance 5 ppm): Marginal
- Evaluation on the Cooling Enhancement ([9]; test substance 10 ppm): ~15% enhancement
- Evaluation on the Cooling Enhancement ([9]; test substance 20 ppm): ~20% enhancement
- Evaluation on the Cooling Enhancement ([9]; test substance 30 ppm): ~20% enhancement,
- Evaluation on the Cooling Enhancement ([9]; test substance 40 ppm): Enhancement,
- Evaluation on the Cooling Enhancement ([9]; test substance 50 ppm): Enhancement,
- Evaluation on the Cooling Enhancement ([9]; test substance 100 ppm): Enhancement,

SMILES: CC1CCC(C(C)C)C(O)C1 (centres unmarked) [Menthol, menthol, reference compound]
- Flavor Profile ([8]; menthol 35 ppm alone, 0 ppm enhancer): Cooling sensation
